What was measured:
ABUTH (Velvetleaf) [1] = assay: Postemergence herbicidal evaluation; assay type: in vivo, Abutilon theophrasti; conditions: postemergence
Outline: (§1)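 Two-week seedlings sprayed postemergence at 40 psi; formulation: 1:1 acetone/water, 0.5% TWEEN 20; application ≈0.0156–0.500 kg/ha. Greenhouse grow-out, then 0–9 visual scoring at 4–5 weeks.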

[2] = system: IPOHE (Morningglory, Ivyleaf); assay: Postemergence herbicidal evaluation; assay type: in vivo, Ipomoea hederacea; conditions: postemergence
Outline: as §1

[3] = system: TRZAWR (Wheat, Winter, cv Riband); assay: Postemergence herbicidal evaluation; assay type: in vivo, Triticum aestivum; conditions: postemergence
Outline: as §1

ZEAMX (Corn, Field) = assay: Postemergence herbicidal evaluation; assay type: in vivo, Zea mays; conditions: postemergence
Outline: as §1

ABUTH (Velvetleaf) [4] = assay: Preemergence herbicidal evaluation; assay type: in vivo, Abutilon theophrasti; conditions: rated 4-5 weeks after treatment
Outline: (§2)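 Seeds were mixed with potting soil and planted on about one inch of soil, then sprayed with test compound in aqueous acetone at about 0.0156 to 0.500 kg per hectare. Plants grew under standard greenhouse care and were visually rated 0-9 against untreated controls 4-5 weeks post-treatment.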

AMBEL (Ragweed, Common) = assay: Preemergence herbicidal evaluation; assay type: in vivo, Ambrosia artemisifolia; conditions: rated 4-5 weeks after treatment
Outline: as §2

CASOB (Sicklepod) = assay: Preemergence herbicidal evaluation; assay type: in vivo, Cassia obtusifolia; conditions: rated 4-5 weeks after treatment
Outline: as §2

GALAP (Galium) = assay: Preemergence herbicidal evaluation; assay type: in vivo, Galium aparine; conditions: rated 4-5 weeks after treatment
Outline: as §2

[5] = system: GLXMAW (Soybean, Williams); assay: Preemergence herbicidal evaluation; assay type: in vivo, Glycine max, (L.) Merr. cv Williams; conditions: rated 4-5 weeks after treatment
Outline: as §2

ORYSAT (Rice, Tebonnet) = assay: Preemergence herbicidal evaluation; assay type: in vivo, Oryza sativa, (L.) Tebonnet; conditions: rated 4-5 weeks after treatment
Outline: as §2

[6] = system: TRZAWR (Wheat, Winter, cv Riband); assay: Preemergence herbicidal evaluation; assay type: in vivo, Triticum aestivum; conditions: rated 4-5 weeks after treatment
Outline: as §2

[7] = system: SAGPY (Arrowhead (Pygmaea)); assay: Preemergence weed control under flooded paddy conditions; assay type: in vivo, Sagittaria pygmaea; conditions: rated 3-4 weeks after treatment
Outline: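 Visual injury scored 0-9 against control three to four weeks post-treatment, greenhouse-grown. Application: acetone/water (50/50) solutions dosed directly into flood water (1.5-3 cm over silt loam, planted top 0.5 cm), roughly 0.0313 to 0.500 kg/ha active ingredient.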

CCOC(=O)CN1C(=O)C(CC(=O)NS(=O)(=O)C(C)C)SC1=Nc1cc(-n2c(=O)cc(C(F)(F)F)n(C)c2=O)c(F)cc1Cl (stereo not drawn) [Compound 117, Ethyl 2-{{2-chloro-5-[3,6-dihydro-3-methyl-2,6-dioxo-4-(trifluoromethyl)-1(2H)-pyrimidinyl]-4-fluorophenyl}imino}-5-{[(isopropylsulfonyl)-carbamoyl]methyl}-4-oxo-3-thiazolidineacetate]
herbicidal rating ABUTH (ABUTH (Velvetleaf) [1]; rate 0.0158 kg/ha): 9.0 | herbicidal rating ABUTH (ABUTH (Velvetleaf) [1]; rate 0.0315 kg/ha): 9.0 | herbicidal rating ABUTH (ABUTH (Velvetleaf) [1]; rate 0.0630 kg/ha): 9.0 | herbicidal rating IPOHE ([2]; rate 0.0158 kg/ha): 9.0 | herbicidal rating IPOHE ([2]; rate 0.0315 kg/ha): 9.0 | herbicidal rating IPOHE ([2]; rate 0.0630 kg/ha): 9.0 | herbicidal rating TRZAWR ([3]; rate 0.0158 kg/ha): 3.0 | herbicidal rating TRZAWR ([3]; rate 0.0315 kg/ha): 3.5 | herbicidal rating TRZAWR ([3]; rate 0.0630 kg/ha): 3.5 | herbicidal rating ZEAMX (ZEAMX (Corn, Field); rate 0.0158 kg/ha): 4.5 | herbicidal rating ZEAMX (ZEAMX (Corn, Field); rate 0.0315 kg/ha): 5.0 | herbicidal rating ZEAMX (ZEAMX (Corn, Field); rate 0.0630 kg/ha): 5.0 | Preemergence herbicidal rating ABUTH (ABUTH (Velvetleaf) [4]; rate 0.0156 kg/ha): 0.0 | Preemergence herbicidal rating ABUTH (ABUTH (Velvetleaf) [4]; rate 0.0313 kg/ha): 0.0 | Preemergence herbicidal rating ABUTH (ABUTH (Velvetleaf) [4]; rate 0.0625 kg/ha): 0.0 | Preemergence herbicidal rating ABUTH (ABUTH (Velvetleaf) [4]; rate 0.1250 kg/ha): 1.0 | Preemergence herbicidal rating ABUTH (ABUTH (Velvetleaf) [4]; rate 0.2500 kg/ha): 9.0 | Preemergence herbicidal rating AMBEL (AMBEL (Ragweed, Common); rate 0.0156 kg/ha): 0.0 | Preemergence herbicidal rating AMBEL (AMBEL (Ragweed, Common); rate 0.0313 kg/ha): 0.0 | Preemergence herbicidal rating AMBEL (AMBEL (Ragweed, Common); rate 0.0625 kg/ha): 0.0 | Preemergence herbicidal rating AMBEL (AMBEL (Ragweed, Common); rate 0.1250 kg/ha): 0.0 | Preemergence herbicidal rating AMBEL (AMBEL (Ragweed, Common); rate 0.2500 kg/ha): 7.0 | Preemergence herbicidal rating CASOB (CASOB (Sicklepod); rate 0.0156 kg/ha): 0.0 | Preemergence herbicidal rating CASOB (CASOB (Sicklepod); rate 0.0313 kg/ha): 0.0 | Preemergence herbicidal rating CASOB (CASOB (Sicklepod); rate 0.0625 kg/ha): 0.0 | Preemergence herbicidal rating CASOB (CASOB (Sicklepod); rate 0.1250 kg/ha): 1.0 | Preemergence herbicidal rating CASOB (CASOB (Sicklepod); rate 0.2500 kg/ha): 1.0 | Preemergence herbicidal rating GALAP (GALAP (Galium); rate 0.0156 kg/ha): 0.0 | Preemergence herbicidal rating GALAP (GALAP (Galium); rate 0.0313 kg/ha): 0.0 | Preemergence herbicidal rating GALAP (GALAP (Galium); rate 0.0625 kg/ha): 0.0 | Preemergence herbicidal rating GALAP (GALAP (Galium); rate 0.1250 kg/ha): 3.0 | Preemergence herbicidal rating GALAP (GALAP (Galium); rate 0.2500 kg/ha): 7.0 | Preemergence herbicidal rating GLXMAW ([5]; rate 0.0156 kg/ha): 0.0 | Preemergence herbicidal rating GLXMAW ([5]; rate 0.0313 kg/ha): 0.0 | Preemergence herbicidal rating GLXMAW ([5]; rate 0.0625 kg/ha): 1.0 | Preemergence herbicidal rating GLXMAW ([5]; rate 0.1250 kg/ha): 1.0 | Preemergence herbicidal rating GLXMAW ([5]; rate 0.2500 kg/ha): 1.0 | Preemergence herbicidal rating ORYSAT (ORYSAT (Rice, Tebonnet); rate 0.0156 kg/ha): 0.0 | Preemergence herbicidal rating ORYSAT (ORYSAT (Rice, Tebonnet); rate 0.0313 kg/ha): 0.0 | Preemergence herbicidal rating ORYSAT (ORYSAT (Rice, Tebonnet); rate 0.0625 kg/ha): 0.0 | Preemergence herbicidal rating ORYSAT (ORYSAT (Rice, Tebonnet); rate 0.1250 kg/ha): 0.0 | Preemergence herbicidal rating ORYSAT (ORYSAT (Rice, Tebonnet); rate 0.2500 kg/ha): 0.0 | Preemergence herbicidal rating TRZAWR ([6]; rate 0.0156 kg/ha): 0.0 | Preemergence herbicidal rating TRZAWR ([6]; rate 0.0313 kg/ha): 0.0 | Preemergence herbicidal rating TRZAWR ([6]; rate 0.0625 kg/ha): 0.0 | Preemergence herbicidal rating TRZAWR ([6]; rate 0.1250 kg/ha): 0.0 | Preemergence herbicidal rating TRZAWR ([6]; rate 0.2500 kg/ha): 0.0 | herbicidal effect rating, SAGPY ([7]; 0.0313 kg/ha): 0.0 | herbicidal effect rating, SAGPY ([7]; 0.0625 kg/ha): 0.0 | herbicidal effect rating, SAGPY ([7]; 0.1250 kg/ha): 0.0 | herbicidal effect rating, SAGPY ([7]; 0.2500 kg/ha): 0.0

C=CCN1C(=O)C(CC(=O)NS(=O)(=O)C(C)C)SC1=Nc1cc(-n2c(=O)cc(C(F)(F)F)n(C)c2=O)c(F)cc1Cl (stereo not drawn) [Compound 118, 3-Allyl-2-{{2-chloro-5-[3,6-dihydro-3-methyl-2,6-dioxo-4-(trifluoromethyl)-1(2H)-pyrimidinyl]-4-fluorophenyl}imino}-N-(isopropylsulfonyl)-4-oxo-5-thiazolidineacetamide]
herbicidal rating ABUTH (ABUTH (Velvetleaf) [1]; rate 0.0158 kg/ha): 0.0 | herbicidal rating ABUTH (ABUTH (Velvetleaf) [1]; rate 0.0315 kg/ha): 4.0 | herbicidal rating ABUTH (ABUTH (Velvetleaf) [1]; rate 0.0630 kg/ha): 9.0 | herbicidal rating IPOHE ([2]; rate 0.0158 kg/ha): 1.0 | herbicidal rating IPOHE ([2]; rate 0.0315 kg/ha): 7.0 | herbicidal rating IPOHE ([2]; rate 0.0630 kg/ha): 9.0 | herbicidal rating TRZAWR ([3]; rate 0.0158 kg/ha): 2.0 | herbicidal rating TRZAWR ([3]; rate 0.0315 kg/ha): 2.0 | herbicidal rating TRZAWR ([3]; rate 0.0630 kg/ha): 2.0 | herbicidal rating ZEAMX (ZEAMX (Corn, Field); rate 0.0158 kg/ha): 3.5 | herbicidal rating ZEAMX (ZEAMX (Corn, Field); rate 0.0315 kg/ha): 4.0 | herbicidal rating ZEAMX (ZEAMX (Corn, Field); rate 0.0630 kg/ha): 4.5 | Preemergence herbicidal rating ABUTH (ABUTH (Velvetleaf) [4]; rate 0.0625 kg/ha): 9.0 | Preemergence herbicidal rating ABUTH (ABUTH (Velvetleaf) [4]; rate 0.1250 kg/ha): 9.0 | Preemergence herbicidal rating ABUTH (ABUTH (Velvetleaf) [4]; rate 0.2500 kg/ha): 7.0 | Preemergence herbicidal rating AMBEL (AMBEL (Ragweed, Common); rate 0.0625 kg/ha): 0.0 | Preemergence herbicidal rating AMBEL (AMBEL (Ragweed, Common); rate 0.1250 kg/ha): 0.0 | Preemergence herbicidal rating AMBEL (AMBEL (Ragweed, Common); rate 0.2500 kg/ha): 6.0 | Preemergence herbicidal rating CASOB (CASOB (Sicklepod); rate 0.0625 kg/ha): 0.0 | Preemergence herbicidal rating CASOB (CASOB (Sicklepod); rate 0.2500 kg/ha): 4.0 | Preemergence herbicidal rating GALAP (GALAP (Galium); rate 0.0625 kg/ha): 1.0 | Preemergence herbicidal rating GALAP (GALAP (Galium); rate 0.1250 kg/ha): 6.0 | Preemergence herbicidal rating GALAP (GALAP (Galium); rate 0.2500 kg/ha): 7.0 | Preemergence herbicidal rating GLXMAW ([5]; rate 0.0625 kg/ha): 1.0 | Preemergence herbicidal rating GLXMAW ([5]; rate 0.1250 kg/ha): 0.0 | Preemergence herbicidal rating GLXMAW ([5]; rate 0.2500 kg/ha): 3.0 | Preemergence herbicidal rating ORYSAT (ORYSAT (Rice, Tebonnet); rate 0.0625 kg/ha): 0.0 | Preemergence herbicidal rating ORYSAT (ORYSAT (Rice, Tebonnet); rate 0.1250 kg/ha): 0.0 | Preemergence herbicidal rating ORYSAT (ORYSAT (Rice, Tebonnet); rate 0.2500 kg/ha): 0.0 | Preemergence herbicidal rating TRZAWR ([6]; rate 0.0625 kg/ha): 0.0 | Preemergence herbicidal rating TRZAWR ([6]; rate 0.1250 kg/ha): 0.0 | Preemergence herbicidal rating TRZAWR ([6]; rate 0.2500 kg/ha): 0.0 | herbicidal effect rating, SAGPY ([7]; 0.0313 kg/ha): 0.0 | herbicidal effect rating, SAGPY ([7]; 0.0625 kg/ha): 0.0 | herbicidal effect rating, SAGPY ([7]; 0.1250 kg/ha): 3.0 | herbicidal effect rating, SAGPY ([7]; 0.2500 kg/ha): 3.0

— patent US20020137929A1, “1 - (3-heterocyclylphenyl) isothiourea, -isourea, -guanidine and -amidine herbicidal agents” (Intellectual Property Department, BASF Aktiengesellschaft, priority 1998, published 2002)
